Like-named read-outs stand apart in the source and are kept apart here.

The experiment concerns fibrosarcoma cell line HT1080. Put plainly: Ferroptosis screening model (MTT method), Erastin-induced ferroptosis. The experiment is classed as cell-based, human. The settings on record: HT1080, ferroptosis inducer Erastin, 72 h, average of three tests, read-out: EC50. On the procedure:
The screening model for ferroptosis mainly used MTT method. First, the fibrosarcoma cell line HT1080 was cultured in a dish, and the cells in the logarithmic growth phase were inoculated into a 96-well plate in a certain number (3000-10000 cells/well), 100 μL per well, and then the plate was put in an 5% CO2 incubator at 37° C., to allow the cells to adhere. After 24 h, 100 μL compound solution at a certain concentration prepared in the designated medium and ferroptosis inducer Erastin (with a final concentration of […]) were added, setting 3 replicate wells for each compound to ensure the accuracy of the results, and a negative control group, a positive control group (Fer-15 μM), a blank control group and a solvent control group were included. After addition of drugs, the plate was placed in an incubator and cultivated for 72 h. On the day of MTT experiment, MTT test solution (5 mg/mL MTT solution dissolved in physiological saline, and stored in the dark at 4° C.) was pre-prepared and 20 μL MTT solution was added to each well, then the plate was put in an incubator and continued to incubate for 2-4 h. After that, 50 μL of 20% SDS solution (dissolved in MiliiQ water, added with 1% concentrated hydrochloric acid) was added to each well and kept in an incubator overnight. On the next day, the absorbance at 570 nm was measured with a microplate reader, to calculate the inhibition rate of drugs on ferroptosis. Generally, the absorbance value of the control group should be in the range of 0.8-1.2 as a normal value.
GraphPadPrism5 software was used to fit the change curve of inhibition rate and calculate the EC50.

In the case of `CC(c1ccc2c(c1)Nc1ccccc1S2)c1cccc2c1COCO2` (stereo not shown) [Compound A66, 2-(1-(benzo[d][1,3]dioxin-5-yl)ethyl)-10H-phenothiazine], the EC50 (Homo sapiens, HT-1080, 72 h) was determined as 0.005 µM.

For the molecule `CC(c1ccc2c(c1)Nc1ccccc1S2)c1cc2ccccc2o1` (stereo not shown) [Compound A67, 2-(1-(benzofuran-2-yl)ethyl)-10H-phenothiazine], under “Homo sapiens, HT-1080, 72 h”, the EC50 was 0.016 µM.

Turning to `CC(c1ccc2c(c1)Nc1ccccc1S2)c1ccc2ccccc2c1` (stereo not shown) [Compound A68, 2-(1-(naphthalen-2-yl)ethyl)-10H-phenothiazine], the EC50 (Homo sapiens, HT-1080, 72 h) was determined as 0.005 µM.

Consider `COc1ccc2cc(C(C)c3ccc4c(c3)Nc3ccccc3S4)ccc2c1` (stereo not shown) [Compound A69, 2-(1-(6-methoxylnaphthalen-2-yl)ethyl)-10H-phenothiazine], for which, under “Homo sapiens, HT-1080, 72 h”, the EC50 was 0.003 µM.

As to `CCOc1ccc2cc(C(C)c3ccc4c(c3)Nc3ccccc3S4)ccc2c1` (stereo not shown) [Compound A70, 2-(1-(6-ethoxylnaphthalen-2-yl)ethyl)-10H-phenothiazine], the EC50 (Homo sapiens, HT-1080, 72 h) was 0.018 µM.

`CC(c1ccc2c(c1)Nc1ccccc1S2)c1c2ccccc2cc2ccccc12` (stereo not shown) [Compound A71, 2-(1-(anthrathen-9-yl)ethyl)-10H-phenothiazine]: the EC50 came out at 0.017 µM.

Take `CC(c1ccc2c(c1)CCO2)c1ccc2c(c1)Nc1ccccc1S2` (stereo not shown) [Compound A72, 2-(1-(2,3-dihydrobenzofuran-5-yl)ethyl)-10H-phenothiazine]: the EC50 (Homo sapiens, HT-1080, 72 h) came out at 0.014 µM.

With `CC(c1cncc(C#N)c1)c1ccc2c(c1)Nc1ccccc1S2` (stereo not shown) [Compound A73, 5-(1-(10H-phenothiazin-2-yl)ethyl)nicotinonitrile], the EC50 (Homo sapiens, HT-1080, 72 h) was determined as 0.005 µM.

On to `Cc1cc(C(C)c2ccc3c(c2)Nc2ccccc2S3)ccn1` (stereo not shown) [Compound A74, 2-(1-(2-methylpyridin-4-yl)ethyl)-10H-phenothiazine], for which the concentration for a half-maximal effect (EC50) (Homo sapiens, HT-1080, 72 h) is 0.003 µM.

As to `CCOc1ccc(C(C)c2ccc3c(c2)Nc2ccccc2S3)cn1` (stereo not shown) [Compound A75, 2-(1-(6-ethoxylpyridin-3-yl)ethyl)-10H-phenothiazine], the EC50 (Homo sapiens, HT-1080, 72 h) was 0.023 µM.

For `CC(c1ccc2c(c1)Nc1ccccc1S2)C1CCCCC1` (stereo not shown) [Compound A76, 2-(1-cyclohexylethyl)-10H-phenothiazine], the EC50 (Homo sapiens, HT-1080, 72 h) was 0.005 µM.

Take `CC(c1ccccc1)c1ccc2c(c1)Nc1ccccc1S2` (stereo not shown) [Compound B1, 2-(1-phenylethyl)-10H-phenothiazine]: the EC50 is 0.01 µM.

On to `C=C(c1ccc(C(=O)OC)cc1)c1ccc2c(c1)Nc1ccccc1S2` [Compound B2, methyl 4-(1-(10H-phenothiazin-2-yl)ethenyl)benzoic acid], for which the EC50 (Homo sapiens, HT-1080, 72 h) turned out to be 0.032 µM.

With `C=C(c1ccc(C(F)(F)F)cc1)c1ccc2c(c1)Nc1ccccc1S2` [Compound B3, 2-(1-(4-(trifluoromethyl)phenyl)ethenyl)-10H-phenothiazine], the EC50 (Homo sapiens, HT-1080, 72 h) came out at 0.011 µM.

As for `C=C(c1ccc(CC)cc1)c1ccc2c(c1)Nc1ccccc1S2` [Compound B4, 2-(1-(4-ethylphenyl)ethenyl)-10H-phenothiazine], where the note is “Homo sapiens, HT-1080, 72 h”, the EC50 was found to be 0.023 µM.

On to `C=C(c1ccc(OC(F)(F)F)cc1)c1ccc2c(c1)Nc1ccccc1S2` [Compound B5, 2-(1-(4-trifluoromethoxylphenyl)ethenyl)-10H-phenothiazine], for which, for the setting “Homo sapiens, HT-1080, 72 h”, the EC50 stood at 0.08 µM.

Regarding `C=C(c1ccc(C)cc1)c1ccc2c(c1)Nc1ccccc1S2` [Compound B6, 2-(1-(p-methylphenyl)ethenyl)-10H-phenothiazine], the EC50 (Homo sapiens, HT-1080, 72 h) came to 0.045 µM.

Take `C=C(c1ccc(CCCC)cc1)c1ccc2c(c1)Nc1ccccc1S2` [Compound B7, 2-(1-(4-butylphenyl)ethenyl)-10H-phenothiazine]: the EC50 (Homo sapiens, HT-1080, 72 h) is 0.029 µM.

As for `C=C(c1ccc(C(C)C)cc1)c1ccc2c(c1)Nc1ccccc1S2` [Compound B8, 2-(1-(4-isopropylphenyl)ethenyl)-10H-phenothiazine], where the note is “Homo sapiens, HT-1080, 72 h”, the EC50 worked out at 0.04 µM.

In the case of `C=C(c1ccc(NC(C)=O)cc1)c1ccc2c(c1)Nc1ccccc1S2` [Compound B9, N-(4-(1-(10H-phenothiazin-2-yl)ethenyl)phenyl)acetylamine], the EC50 (Homo sapiens, HT-1080, 72 h) was found to be 0.003 µM.

As to `C=C(c1ccc(NC(N)=O)cc1)c1ccc2c(c1)Nc1ccccc1S2` [Compound B10, N-(4-(1-(10H-phenothiazin-2-yl)ethenyl)phenyl)urea], under “Homo sapiens, HT-1080, 72 h”, the EC50 amounted to 0.01 µM.

Regarding `C=C(c1ccc(C2CCCCC2)cc1)c1ccc2c(c1)Nc1ccccc1S2` [Compound B11, 2-(1-(4-cyclohexylphenyl)ethenyl)-10H-phenothiazine], for the setting “Homo sapiens, HT-1080, 72 h”, the EC50 is 0.039 µM.

As to `C=C(c1ccc(CC(C)C)cc1)c1ccc2c(c1)Nc1ccccc1S2` [Compound B12, 2-(1-(4-isobutylphenyl)ethenyl)-10H-phenothiazine], the EC50 (Homo sapiens, HT-1080, 72 h) was determined as 0.04 µM.

As to `C=C(c1ccc(C=O)cc1)c1ccc2c(c1)Nc1ccccc1S2` [Compound B13, 4-(1-(10H-phenothiazin-2-yl)ethenyl)benzaldehyde], for the setting “Homo sapiens, HT-1080, 72 h”, the EC50 is 0.03 µM.

For the molecule `C=C(c1ccc(N2CCOCC2)cc1)c1ccc2c(c1)Nc1ccccc1S2` [Compound B14, 4-(4-(1-(10H-phenothiazin-2-yl)ethenyl)phenyl)morpholine], the EC50 stood at 0.039 µM.

Consider `C=C(c1ccc(N2CCOCC2)cc1)c1ccc2c(c1)Nc1ccccc1S2` [Compound B15, 4-(4-(1-(10H-phenothiazin-2-yl)ethenyl)phenyl)morpholine], for which the EC50 came to 0.68 µM.

Turning to `C=C(c1ccc2c(c1)Nc1ccccc1S2)c1ccccc1N` [Compound B16, 2-(1-(10H-phenothiazin-2-yl)ethenyl)phenylamine], for the setting “Homo sapiens, HT-1080, 72 h”, the EC50 was determined as 0.029 µM.

With `C=C(c1cccc(N)c1)c1ccc2c(c1)Nc1ccccc1S2` [Compound B17, 3-(1-(10H-phenothiazin-2-yl)ethenyl)phenylamine], the EC50 (Homo sapiens, HT-1080, 72 h) is 0.017 µM.

In the case of `C=C(c1cccc(O)c1)c1ccc2c(c1)Nc1ccccc1S2` [Compound B18, 3-(1-(10H-phenothiazin-2-yl)ethenyl)phenol], for the setting “Homo sapiens, HT-1080, 72 h”, the EC50 was determined as 0.04 µM.

Turning to `C=C(c1cccc([N+](=O)[O-])c1)c1ccc2c(c1)Nc1ccccc1S2` [Compound B19, 2-(1-(3-nitrophenyl)ethenyl)-10H-phenothiazine], the EC50 (Homo sapiens, HT-1080, 72 h) came out at 0.013 µM.

Consider `C=C(c1cccc(S(N)(=O)=O)c1)c1ccc2c(c1)Nc1ccccc1S2` [Compound B20, 3-(1-(10H-phenothiazin-2-yl)ethenyl)benzenesulfonamide], for which the EC50 (Homo sapiens, HT-1080, 72 h) turned out to be 0.01 µM.

In the case of `C=C(c1cccc(OC)c1)c1ccc2c(c1)Nc1ccccc1S2` [Compound B21, 2-(1-(3-methoxylphenyl)ethenyl)-10H-phenothiazine], where the note is “Homo sapiens, HT-1080, 72 h”, the EC50 stood at 0.011 µM.

Turning to `C=C(c1cccc(OC(F)(F)F)c1)c1ccc2c(c1)Nc1ccccc1S2` [Compound B22, 2-(1-(3-trifluoromethoxylphenyl)ethenyl)-10H-phenothiazine], the EC50 (Homo sapiens, HT-1080, 72 h) was 0.03 µM.

For `C=C(c1cccc(OC(C)C)c1)c1ccc2c(c1)Nc1ccccc1S2` [Compound B23, 2-(1-(3-isopropoxylphenyl)ethenyl)-10H-phenothiazine], the 50% effective concentration (EC50) (Homo sapiens, HT-1080, 72 h) turned out to be 0.048 µM.

`C=C(c1cccc(C)c1)c1ccc2c(c1)Nc1ccccc1S2` [Compound B24, 2-(1-(m-methylphenyl)ethenyl)-10H-phenothiazine]: the EC50 (Homo sapiens, HT-1080, 72 h) is 0.031 µM.

As to `C=C(c1cccc(C(C)(C)C)c1)c1ccc2c(c1)Nc1ccccc1S2` [Compound B25, 2-(1-(3-t-butylphenyl)ethenyl)-10H-phenothiazine], the EC50 (Homo sapiens, HT-1080, 72 h) worked out at 0.016 µM.

Take `C=C(c1cccc(C(N)=O)c1)c1ccc2c(c1)Nc1ccccc1S2` [Compound B26, 3-(1-(10H-phenothiazin-2-yl)ethenyl)benzamide]: for the setting “Homo sapiens, HT-1080, 72 h”, the EC50 turned out to be 0.016 µM.

The values above are taken from patent US11440909B2, “10H-phenothiazine ferroptosis inhibitor as well as the preparative method and the use thereof” (CHENGDU HENGHAO INVESTMENT CO. LIMITED, priority 2018, dated 2022).
